Data on 21 compounds can be found in patent US10160729B2, “Hsp70 modulators and methods for making and using the same” (Memorial Sloan Kettering Cancer Center, priority 2014, dated 2018).

Some results are limits rather than exact numbers.

For one assay, the system named is MDA-MB-468 triple negative breast cancer cells. Kind of assay: Western blot of anti-apoptotic protein complexes. The format is cell-based. The conditions noted are these: FIG. 1A, MDA-MB-468 cells, 24 h. From the text: (§1) Cell lines: MDA-MB-468 cells were obtained from the American Type Culture Collection. DLBCL cells were described in Cerchietti L C, et al. BCL6 repression of EP300 in human diffuse large B cell lymphoma cells provides a basis for rational combinatorial therapy. J Clin Invest. Dec. 1, 2010; 120(12): 4569-4582; and Cerchietti L C, et al. A purine scaffold Hsp90 inhibitor destabilizes BCL-6 and has specific antitumor activity in BCL-6-dependent B cell lymphomas. Nat Med. 2009 December; 15(12):1369-76. MDA-MB-468 cells were grown in DME/F12 with 10% FBS and 1% penicillin and streptomycin. OCI-LY1R cells were developed by continuous incubation of OCI-LY1 cells with suboptimal concentrations of PU-H71 (depicted below) with subsequent selection of resistant clones. OCI-LY1, OCI-LY1R and OCI-LY7 cells were cultured in IMDM supplemented with 20% FBS, 1% glutamax and 1% penicillin and streptomycin. OCI-LY3, FARAGE, HBL1, Karpas422, MD901, U2932, SU-DHL4, SU-DHL6, RCK8 and TMD8 cells were grown in RPMI with 10% FBS, 1% glutamax and 1% penicillin and streptomycin.
Western blot: Cells were plated and treated next day with indicated drug concentrations for 24h. […] The chemiluminescent signal was detected using the Enhanced Chemiluminescence Detection System (Amersham Biosciences) according to the manufacturer's instructions.
Turning to `CN1CCN(c2ncc(Sc3ccc(N)nc3)c(OCc3ccccc3)n2)CC1` [compound 32, 5-((4-(Benzyloxy)-2-(4-methylpiperazin-1-yl)pyrimidin-5-yl)thio)pyridin-2-amine], the “Effect on Hsp70-regulated anti-apoptotic protein complexes” value is “effects reverted”.

The subject of a further assay is MOLM-13 cells. In words: Caspase cleavage assay (Caspase3, 7 activation). The format is cell-based. The conditions noted are these: Homo sapiens, 16 h treatment, caspase substrate Z-DEVD-R110, read-out: c* Concentration at which 50% of the maximum signal was achieved (caspase activation). In a few lines: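 Cells (30,000/well, RPMI) treated 16 h with compound or DMSO in triplicate, then given buffer with 10 mM HEPES pH 7.5, 2 mM EDTA, 0.1% CHAPS and 25 μM Z-DEVD-R110. Fluorescence read once signal stabilized; results given as percentage increase in apoptotic cells versus DMSO-treated control.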
Turning to `CN1CCN(c2ncc(Sc3ccc(N)nc3)c(OCc3ccccc3)n2)CC1` [compound 32, 5-((4-(Benzyloxy)-2-(4-methylpiperazin-1-yl)pyrimidin-5-yl)thio)pyridin-2-amine], the EC50 lay within 200 to 400 nM.

`Cc1cccc(COc2nc(N3CCN(C)CC3)ncc2Sc2ccc(C(N)=O)c(C(F)(F)F)c2)c1` [compound 329, 4-((4-((3-Methylbenzyl)oxy)-2-(4-methylpiperazin-1-yl)pyrimidin-5-yl)thio)-2-(trifluoromethyl)benzamide]: the EC50 was in the range of 400 to 1000 nM.

As to `CC(C)c1cccc(COc2nc(N3CCN(C)CC3)ncc2Sc2ccc(C(N)=O)c(C(F)(F)F)c2)c1` [compound 331, 4-((4-((3-Isopropylbenzyl)oxy)-2-(4-methylpiperazin-1-yl)pyrimidin-5-yl)thio)-2-(trifluoromethyl)benzamide], the EC50 is no less than 1200 nM.

For `CCc1cccc(COc2nc(N3CCN(C)CC3)ncc2Sc2ccc(C(N)=O)c(C(F)(F)F)c2)c1` [compound 333, 4-((4-((3-Ethylbenzyl)oxy)-2-(4-methylpiperazin-1-yl)pyrimidin-5-yl)thio)-2-(trifluoromethyl)benzamide], the EC50 fell in the range of 1000 to 1200 nM.

With `C#CCN1CCN(c2ncc(Sc3ccc(C(N)=O)cc3)c(OCc3cccc(N(C)C)c3)n2)CC1` [compound 336, 4-((4-((3-(Dimethylamino)benzyl)oxy)-2-(4-(prop-2-yn-1-yl)piperazin-1-yl)pyrimidin-5-yl)thio)benzamide], the EC50 is less than 200 nM.

With `C#CCN1CCN(c2ncc(Sc3ccc(C(N)=O)c(C(F)(F)F)c3)c(OCc3cccc(N(C)C)c3)n2)CC1` [compound 339, 4-((4-((3-(Dimethylamino)benzyl)oxy)-2-(4-(prop-2-yn-1-yl)piperazin-1-yl)pyrimidin-5-yl)thio)-2-(trifluoromethyl)benzamide], the EC50 was in the range of 400 to 1000 nM.

Turning to `CN(C)c1cccc(COc2nc(N3CCN(C4CC4)CC3)ncc2Sc2ccc(C(N)=O)c(C(F)(F)F)c2)c1` [compound 341, 4-((2-(4-Cyclopropylpiperazin-1-yl)-4-((3-(dimethylamino)benzyl)oxy)pyrimidin-5-yl)thio)-2-(trifluoromethyl)benzamide], the EC50 is no less than 1200 nM.

For `CN(C)c1cccc(COc2nc(N3CCN(CC4CC4)CC3)ncc2Sc2ccc(C(N)=O)c(C(F)(F)F)c2)c1` [compound 343, 4-((2-(4-(Cyclopropylmethyl)piperazin-1-yl)-4-((3-(dimethylamino)benzyl)oxy)pyrimidin-5-yl)thio)-2-(trifluoromethyl)benzamide], the EC50 was no less than 1200 nM.

Turning to `CN1CCN(c2ncc(Sc3ccc(C(N)=O)c(C(F)(F)F)c3)c(OCc3cccc(N(C)C)c3)n2)CC1=O` [compound 345, 4-((4-((3-(Dimethylamino)benzyl)oxy)-2-(4-methyl-3-oxopiperazin-1-yl)pyrimidin-5-yl)thio)-2-(trifluoromethyl)benzamide], the EC50 lay in the range of 1000 to 1200 nM.

In the case of `C#CCN1CCN(c2ncc(Sc3ccc(C(N)=O)cc3)c(OCc3cccc(Cl)c3)n2)CC1` [compound 348, 4-((4-((3-Chlorobenzyl)oxy)-2-(4-(prop-2-yn-1-yl)piperazin-1-yl)pyrimidin-5-yl)thio)benzamide], the EC50 lay in the range of 400 to 1000 nM.

As for `C#CCN1CCN(c2ncc(Sc3ccc(C(N)=O)c(C(F)(F)F)c3)c(OCc3cccc(Cl)c3)n2)CC1` [compound 351, 4-((4-((3-Chlorobenzyl)oxy)-2-(4-(prop-2-yn-1-yl)piperazin-1-yl)pyrimidin-5-yl)thio)-2-(trifluoromethyl)benzamide], the EC50 is 1000 to 1200 nM.

For the compound `C#CCN1CCN(c2ncc(Sc3ccc(C(N)=O)cc3)c(OCc3ccc(F)c(Cl)c3)n2)CC1` [compound 354, 4-((4-((3-Chloro-4-fluorobenzyl)oxy)-2-(4-(prop-2-yn-1-yl)piperazin-1-yl)pyrimidin-5-yl)thio)benzamide], the EC50 is less than 200 nM.

Regarding `C#CCN1CCN(c2ncc(Sc3ccc(C(N)=O)c(C(F)(F)F)c3)c(OCc3cccc(I)c3)n2)CC1` [compound 357, 4-((4-((3-Iodobenzyl)oxy)-2-(4-(prop-2-yn-1-yl)piperazin-1-yl)pyrimidin-5-yl)thio)-2-(trifluoromethyl)benzamide], the EC50 lay in the range of 200 to 400 nM.

On to `CN(C)[C@@H]1CCN(c2ncc(Sc3ccc(C(N)=O)cc3)c(OCc3cccc(F)c3)n2)C1` [compound 363, (R)-4-((2-(3-(Dimethylamino)pyrrolidin-1-yl)-4-((3-fluorobenzyl)oxy)pyrimidin-5-yl)thio)benzamide], for which the EC50 lay within 200 to 400 nM.

For `CN(C)[C@@H]1CCN(c2ncc(Sc3ccc(C(N)=O)cc3)c(OCc3cccc(Cl)c3)n2)C1` [compound 365, (R)-4-((4-((3-Chlorobenzyl)oxy)-2-(3-(dimethylamino)pyrrolidin-1-yl)pyrimidin-5-yl)thio)benzamide], the EC50 lay within 200 to 400 nM.

For the compound `CN(C)[C@@H]1CCN(c2ncc(Sc3ccc(C(N)=O)cc3)c(OCc3cccc(Br)c3)n2)C1` [compound 367, (R)-4-((4-((3-Bromobenzyl)oxy)-2-(3-(dimethylamino)pyrrolidin-1-yl)pyrimidin-5-yl)thio)benzamide], the EC50 was 200 to 400 nM.

On to `CN(C)[C@@H]1CCN(c2ncc(Sc3ccc(C(N)=O)cc3)c(OCc3cccc(I)c3)n2)C1` [compound 369, (R)-4-((2-(3-(Dimethylamino)pyrrolidin-1-yl)-4-((3-iodobenzyl)oxy)pyrimidin-5-yl)thio)benzamide], for which the EC50 was 200 to 400 nM.

Consider `COc1cccc(COc2nc(N3CC[C@@H](N(C)C)C3)ncc2Sc2ccc(N)nc2)c1` [compound 375, (R)-5-((2-(3-(Dimethylamino)pyrrolidin-1-yl)-4-((3-methoxybenzyl)oxy)pyrimidin-5-yl)thio)pyridin-2-amine], for which the EC50 is less than 200 nM.

For the compound `CN(C)[C@@H]1CCN(c2ncc(Sc3ccc(N)nc3)c(OCc3cccc(Cl)c3)n2)C1` [compound 376, (R)-5-((4-((3-Chlorobenzyl)oxy)-2-(3-(dimethylamino)pyrrolidin-1-yl)pyrimidin-5-yl)thio)pyridin-2-amine], the EC50 was less than 200 nM.

Turning to `NC(=O)c1ccc(Sc2cnc(N3CCN(CC#CCO)CC3)nc2OCc2cccc(Cl)c2)cc1` [compound 379, 4-((4-((3-Chlorobenzyl)oxy)-2-(4-(4-hydroxybut-2-yn-1-yl)piperazin-1-yl)pyrimidin-5-yl)thio)benzamide], the EC50 is less than 200 nM.

A further assay concerns diffuse large B-cell lymphoma (DLBCL) cells. Kind of assay: Growth inhibition (CellTiter-Glo) in DLBCL cells, including cells with induced resistance to PU-H71. The conditions noted are these: FIG. 1B; DLBCL cells with induced resistance to Hsp90 inhibitor PU-H71. The format is cell-based, human.
Text: as §1
Growth inhibition: 5,000 cells per well were plated in black 96-well microtiter plates and treated next day with indicated compounds at 1/2 serial dilutions. The plate was incubated for 72h after which growth was measured using the CellTiter-Glo Luminescent Cell Viability Assay (Promega) according to manufacture's instructions. The percentage cell growth inhibition was calculated by comparing luminescence readings obtained from treated versus control cells, accounting for initial cell population. The luminescence signal in each well was measured using the Analyst GT microplate reader (Molecular Devices).
For the compound `CN1CCN(c2ncc(Sc3ccc(N)nc3)c(OCc3ccccc3)n2)CC1` [compound 32, 5-((4-(Benzyloxy)-2-(4-methylpiperazin-1-yl)pyrimidin-5-yl)thio)pyridin-2-amine], the “Activity in DLBCL cells with induced resistance to PU-H71” value was “retains activity”.

Staying with this assay, now noted: FIG. 1C; PU-H71-sensitive versus compound 32-sensitive DLBCL lines.
In the case of `CC(C)NCCCn1c(Sc2cc3c(cc2I)OCO3)nc2c(N)ncnc21` [PU-H71, reference compound], the “Spectrum of sensitive DLBCLs” value is reported as “does not overlap”.

As to `CN1CCN(c2ncc(Sc3ccc(N)nc3)c(OCc3ccccc3)n2)CC1` [compound 32, 5-((4-(Benzyloxy)-2-(4-methylpiperazin-1-yl)pyrimidin-5-yl)thio)pyridin-2-amine], the “Spectrum of sensitive DLBCLs” value was “does not overlap”.
